Measurements: ChEMBL document CHEMBL1152560, “Substituted 2-arylbenzothiazoles as kinase inhibitors: hit-to-lead optimization” (Bioorg Med Chem, 2009)

Experiments:
[1] = molecular target: Fibroblast growth factor receptor 4 (Homo sapiens) (UniProt P22455); test: Residual activity of FGFR4 at 1 uM by microplate scintillation counting
[2] = molecular target: Ribosomal protein S6 kinase alpha-6 (Homo sapiens) (UniProt Q9UK32); test: Residual activity of RPS6KA6 at 0.1 uM by microplate scintillation counting
Chain of Ribosomal protein S6 kinase alpha-6 (Homo sapiens) (Q9UK32 whole entry): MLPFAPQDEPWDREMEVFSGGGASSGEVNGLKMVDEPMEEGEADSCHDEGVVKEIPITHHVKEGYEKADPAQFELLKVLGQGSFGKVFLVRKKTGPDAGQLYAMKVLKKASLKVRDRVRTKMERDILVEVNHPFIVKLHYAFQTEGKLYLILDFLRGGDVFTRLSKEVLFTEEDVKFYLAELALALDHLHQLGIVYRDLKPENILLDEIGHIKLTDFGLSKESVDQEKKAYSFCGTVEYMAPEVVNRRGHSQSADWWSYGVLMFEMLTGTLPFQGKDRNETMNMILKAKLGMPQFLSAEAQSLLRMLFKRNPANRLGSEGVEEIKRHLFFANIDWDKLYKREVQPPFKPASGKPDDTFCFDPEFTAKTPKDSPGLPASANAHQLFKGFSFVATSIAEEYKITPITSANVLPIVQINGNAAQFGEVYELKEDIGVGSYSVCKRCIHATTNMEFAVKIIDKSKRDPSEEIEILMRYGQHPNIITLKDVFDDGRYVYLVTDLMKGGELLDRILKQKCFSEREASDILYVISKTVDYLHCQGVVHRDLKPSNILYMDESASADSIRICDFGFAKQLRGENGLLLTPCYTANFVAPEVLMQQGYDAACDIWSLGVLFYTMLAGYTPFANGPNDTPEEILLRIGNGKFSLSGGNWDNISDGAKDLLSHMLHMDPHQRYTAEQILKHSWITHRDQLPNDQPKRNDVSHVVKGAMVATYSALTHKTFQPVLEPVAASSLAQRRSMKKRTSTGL

[3] = molecular target: Serine/threonine-protein kinase SIK2 (Homo sapiens) (UniProt Q9H0K1); test: Residual activity of SNF1LK2 at 1 uM by microplate scintillation counting
Chain of Serine/threonine-protein kinase SIK2 (Homo sapiens) (Q9H0K1 whole entry, looked up): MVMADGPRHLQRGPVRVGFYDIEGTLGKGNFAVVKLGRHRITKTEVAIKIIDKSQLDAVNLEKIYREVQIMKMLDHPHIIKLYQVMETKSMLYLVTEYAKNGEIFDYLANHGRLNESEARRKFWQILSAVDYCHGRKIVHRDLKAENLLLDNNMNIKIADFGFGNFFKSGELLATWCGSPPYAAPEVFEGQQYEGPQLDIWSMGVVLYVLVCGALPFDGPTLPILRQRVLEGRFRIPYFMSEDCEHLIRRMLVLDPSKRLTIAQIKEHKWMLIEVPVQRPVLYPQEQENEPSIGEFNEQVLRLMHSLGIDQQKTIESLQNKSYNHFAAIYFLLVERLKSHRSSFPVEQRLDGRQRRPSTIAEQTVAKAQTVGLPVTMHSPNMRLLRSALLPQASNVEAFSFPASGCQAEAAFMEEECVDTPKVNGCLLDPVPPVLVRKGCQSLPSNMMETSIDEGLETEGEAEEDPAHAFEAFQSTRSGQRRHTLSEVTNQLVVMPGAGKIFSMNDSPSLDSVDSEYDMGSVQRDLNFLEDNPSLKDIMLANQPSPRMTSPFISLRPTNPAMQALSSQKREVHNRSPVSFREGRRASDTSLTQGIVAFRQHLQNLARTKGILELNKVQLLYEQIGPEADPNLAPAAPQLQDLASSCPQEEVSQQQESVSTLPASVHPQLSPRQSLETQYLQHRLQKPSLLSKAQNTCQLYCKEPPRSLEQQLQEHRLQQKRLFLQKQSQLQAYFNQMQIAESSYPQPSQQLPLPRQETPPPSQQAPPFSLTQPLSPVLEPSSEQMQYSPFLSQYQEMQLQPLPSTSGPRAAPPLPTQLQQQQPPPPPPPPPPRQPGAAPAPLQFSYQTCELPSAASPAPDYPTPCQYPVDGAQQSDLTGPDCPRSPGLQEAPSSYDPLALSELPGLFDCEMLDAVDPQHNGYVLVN

[4] = molecular target: T1, Calcium/calmodulin-dependent protein kinase type IV (Homo sapiens) (UniProt Q16566); test: Residual activity of CAMK4 at 0.1 uM by microplate scintillation counting
T1 sequence (whole entry): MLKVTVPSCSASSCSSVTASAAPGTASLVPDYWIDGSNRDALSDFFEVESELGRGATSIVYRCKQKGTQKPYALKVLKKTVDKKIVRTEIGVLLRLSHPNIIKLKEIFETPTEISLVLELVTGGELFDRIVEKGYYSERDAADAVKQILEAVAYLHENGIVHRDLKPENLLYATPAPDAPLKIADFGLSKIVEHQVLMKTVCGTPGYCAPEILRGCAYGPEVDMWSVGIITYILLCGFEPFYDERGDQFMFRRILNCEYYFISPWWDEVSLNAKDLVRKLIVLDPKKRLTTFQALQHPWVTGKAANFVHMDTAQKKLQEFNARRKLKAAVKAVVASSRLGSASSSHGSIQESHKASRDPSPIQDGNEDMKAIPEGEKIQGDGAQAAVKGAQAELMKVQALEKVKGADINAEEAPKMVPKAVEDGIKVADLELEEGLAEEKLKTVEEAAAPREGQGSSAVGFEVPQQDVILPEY

[5] = molecular target: T2, Ephrin type-A receptor 8 (Homo sapiens) (UniProt P29322); test: Residual activity of EPHA8 at 0.1 uM by microplate scintillation counting
T2 sequence (whole entry): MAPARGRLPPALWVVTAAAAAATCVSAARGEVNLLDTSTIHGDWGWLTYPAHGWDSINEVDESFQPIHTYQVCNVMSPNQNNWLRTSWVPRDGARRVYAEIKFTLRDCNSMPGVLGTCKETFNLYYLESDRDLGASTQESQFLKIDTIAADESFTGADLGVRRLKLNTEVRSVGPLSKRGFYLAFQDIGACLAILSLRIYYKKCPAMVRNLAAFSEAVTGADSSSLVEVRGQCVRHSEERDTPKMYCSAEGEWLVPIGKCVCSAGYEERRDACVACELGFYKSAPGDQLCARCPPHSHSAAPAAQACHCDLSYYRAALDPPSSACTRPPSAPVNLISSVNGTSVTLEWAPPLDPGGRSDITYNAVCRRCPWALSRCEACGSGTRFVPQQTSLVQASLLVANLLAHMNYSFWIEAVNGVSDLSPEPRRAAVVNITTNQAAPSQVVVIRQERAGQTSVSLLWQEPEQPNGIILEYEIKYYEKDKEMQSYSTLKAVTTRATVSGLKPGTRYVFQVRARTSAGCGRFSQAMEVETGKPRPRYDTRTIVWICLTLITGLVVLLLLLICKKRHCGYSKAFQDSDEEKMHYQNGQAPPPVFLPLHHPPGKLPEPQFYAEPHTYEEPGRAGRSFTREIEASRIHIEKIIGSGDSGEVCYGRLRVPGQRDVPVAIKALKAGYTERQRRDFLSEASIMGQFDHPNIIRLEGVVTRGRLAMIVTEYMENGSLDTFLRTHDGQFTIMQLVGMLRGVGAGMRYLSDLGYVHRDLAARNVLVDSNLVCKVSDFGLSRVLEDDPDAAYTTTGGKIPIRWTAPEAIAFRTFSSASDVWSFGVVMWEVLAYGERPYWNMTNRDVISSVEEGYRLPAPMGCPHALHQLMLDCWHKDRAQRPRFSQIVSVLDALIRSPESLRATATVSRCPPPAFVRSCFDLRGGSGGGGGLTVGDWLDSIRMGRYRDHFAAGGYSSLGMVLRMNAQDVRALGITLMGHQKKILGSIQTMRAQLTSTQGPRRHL

Aurora kinase B = Aurora kinase B (Homo sapiens, UniProt Q96GD4); test: Residual activity of Aurora-B at 0.1 uM by microplate scintillation counting
Chain of Aurora kinase B (Q96GD4 whole entry): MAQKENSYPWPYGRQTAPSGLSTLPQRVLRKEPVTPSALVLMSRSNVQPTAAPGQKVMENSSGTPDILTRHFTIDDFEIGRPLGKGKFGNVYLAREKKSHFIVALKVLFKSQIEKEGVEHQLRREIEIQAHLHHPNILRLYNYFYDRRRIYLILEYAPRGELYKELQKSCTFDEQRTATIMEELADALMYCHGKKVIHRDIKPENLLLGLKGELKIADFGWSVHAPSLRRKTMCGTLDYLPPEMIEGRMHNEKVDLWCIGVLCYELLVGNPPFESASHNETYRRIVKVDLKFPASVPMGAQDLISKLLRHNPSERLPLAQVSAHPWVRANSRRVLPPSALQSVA

[6] = molecular target: T3, Tyrosine-protein kinase ITK/TSK (Homo sapiens) (UniProt Q08881); test: Residual activity of ITK at 1 uM by microplate scintillation counting
T3 sequence (whole entry): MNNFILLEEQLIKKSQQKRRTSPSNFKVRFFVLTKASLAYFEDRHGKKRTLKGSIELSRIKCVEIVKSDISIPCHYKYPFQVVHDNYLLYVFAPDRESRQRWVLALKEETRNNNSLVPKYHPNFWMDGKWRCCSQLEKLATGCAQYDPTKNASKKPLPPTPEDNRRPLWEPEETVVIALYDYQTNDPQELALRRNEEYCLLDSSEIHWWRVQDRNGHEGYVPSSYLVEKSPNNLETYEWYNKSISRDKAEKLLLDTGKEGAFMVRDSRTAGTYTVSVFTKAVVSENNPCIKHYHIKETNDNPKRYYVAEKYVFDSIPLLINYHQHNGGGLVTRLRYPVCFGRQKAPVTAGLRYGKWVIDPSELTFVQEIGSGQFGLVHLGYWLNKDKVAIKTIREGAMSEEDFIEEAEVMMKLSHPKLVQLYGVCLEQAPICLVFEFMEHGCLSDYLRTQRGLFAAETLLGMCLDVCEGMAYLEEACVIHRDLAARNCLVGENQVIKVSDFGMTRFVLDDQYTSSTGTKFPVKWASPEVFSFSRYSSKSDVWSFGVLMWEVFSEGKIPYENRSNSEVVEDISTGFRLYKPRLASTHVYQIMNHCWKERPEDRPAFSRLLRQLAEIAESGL

[7] = molecular target: CDK8/Cyclin C (Homo sapiens) (UniProt P49336+P24863); test: Residual activity of CDK8/Cyclin C at 10 uM by microplate scintillation counting; type: protein-complex assay
[8] = molecular target: Casein kinase I isoform gamma-2 (Homo sapiens) (UniProt P78368); test: Residual activity of CK1gamma2 at 0.1 uM by microplate scintillation counting
Chain of Casein kinase I isoform gamma-2 (Homo sapiens) (P78368 whole entry, looked up, canonical isoform): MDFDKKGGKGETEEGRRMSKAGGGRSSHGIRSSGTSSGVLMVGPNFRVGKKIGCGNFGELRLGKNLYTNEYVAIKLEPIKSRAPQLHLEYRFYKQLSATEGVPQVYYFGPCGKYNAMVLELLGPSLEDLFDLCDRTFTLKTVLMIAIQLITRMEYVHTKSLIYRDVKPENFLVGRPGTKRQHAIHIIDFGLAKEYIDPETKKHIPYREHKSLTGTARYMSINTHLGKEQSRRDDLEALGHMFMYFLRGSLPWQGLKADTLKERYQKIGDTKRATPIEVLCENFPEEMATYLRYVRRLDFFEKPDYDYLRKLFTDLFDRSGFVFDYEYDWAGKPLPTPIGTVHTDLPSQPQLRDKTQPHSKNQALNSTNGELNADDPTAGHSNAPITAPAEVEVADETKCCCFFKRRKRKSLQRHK

[9] = molecular target: Casein kinase I isoform gamma-3 (Homo sapiens) (UniProt Q9Y6M4); test: Residual activity of CK1gamma3 at 1 uM by microplate scintillation counting
Chain of Casein kinase I isoform gamma-3 (Homo sapiens) (Q9Y6M4 whole entry, looked up, canonical isoform): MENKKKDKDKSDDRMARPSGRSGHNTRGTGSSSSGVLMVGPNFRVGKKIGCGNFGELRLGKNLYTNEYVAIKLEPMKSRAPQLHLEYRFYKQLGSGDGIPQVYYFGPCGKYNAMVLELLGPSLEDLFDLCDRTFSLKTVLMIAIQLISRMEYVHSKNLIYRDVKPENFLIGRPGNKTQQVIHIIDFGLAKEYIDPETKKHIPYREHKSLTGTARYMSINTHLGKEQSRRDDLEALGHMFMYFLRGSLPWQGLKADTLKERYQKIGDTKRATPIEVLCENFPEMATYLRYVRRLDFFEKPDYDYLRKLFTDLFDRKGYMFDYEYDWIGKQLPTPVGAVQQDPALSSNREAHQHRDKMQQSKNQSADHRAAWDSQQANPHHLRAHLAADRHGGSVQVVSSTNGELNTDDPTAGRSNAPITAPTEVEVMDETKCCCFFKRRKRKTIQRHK

Chain of Fibroblast growth factor receptor 4 (Homo sapiens) (P22455 22-802 limits assumed): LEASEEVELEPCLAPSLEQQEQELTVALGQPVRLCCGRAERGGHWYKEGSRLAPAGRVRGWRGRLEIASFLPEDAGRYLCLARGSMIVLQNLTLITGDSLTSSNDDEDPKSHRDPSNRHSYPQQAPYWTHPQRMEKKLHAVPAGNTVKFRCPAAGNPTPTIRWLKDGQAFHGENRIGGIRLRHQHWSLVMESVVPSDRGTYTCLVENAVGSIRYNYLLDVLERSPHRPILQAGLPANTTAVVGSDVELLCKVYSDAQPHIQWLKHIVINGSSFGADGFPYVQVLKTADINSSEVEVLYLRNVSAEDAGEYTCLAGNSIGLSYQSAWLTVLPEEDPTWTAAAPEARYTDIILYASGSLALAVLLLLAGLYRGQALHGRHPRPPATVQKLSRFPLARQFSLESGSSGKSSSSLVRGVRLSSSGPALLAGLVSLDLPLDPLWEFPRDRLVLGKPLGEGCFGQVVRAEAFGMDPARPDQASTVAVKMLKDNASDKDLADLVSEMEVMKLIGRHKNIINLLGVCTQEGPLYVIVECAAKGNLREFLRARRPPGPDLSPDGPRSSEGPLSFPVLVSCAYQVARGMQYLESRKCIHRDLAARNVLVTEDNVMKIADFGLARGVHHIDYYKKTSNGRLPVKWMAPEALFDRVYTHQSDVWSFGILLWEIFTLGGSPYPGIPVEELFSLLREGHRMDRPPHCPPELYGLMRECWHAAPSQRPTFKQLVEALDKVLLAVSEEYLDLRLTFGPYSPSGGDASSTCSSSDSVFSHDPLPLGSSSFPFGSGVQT

residual activity [1] [%]	residual activity [2] [%]	residual activity [3] [%]	residual activity [4] [%]	residual activity [5] [%]	residual activity (Aurora kinase B) [%]	residual activity [6] [%]	residual activity [7] [%]	residual activity [8] [%]	residual activity [9] [%]	SMILES
137	92	78	102	108	48	95	82	93	88	COc1cc2c(Oc3ccc(-c4nc5ccccc5s4)cc3)ncnc2cc1OCCCN1CCCC1
130	95	85	97	101	45	97	75	90	92	COc1cc2c(Oc3ccc(-c4nc5ccccc5s4)cc3F)ncnc2cc1OCCCN1CCN(C)CC1
121	96	88	96	109	40	91	88	93	83	COc1cc2c(Oc3ccc(-c4nc5ccccc5s4)cc3)ncnc2cc1OCCCN1CCN(C)CC1
